PubChem BioAssay AID192 (DTP/NCI, 2004)
Toxic doses and inconclusive results are not listed. How the source made its calls: active means survival T/C of 150% or more; inactive means T/C below 125% in these data.

Tested on: BDF1 mice, B16 melanoma ip, median survival T/C
Experiment: NCI In Vivo Anticancer Drug Screen. Data for tumor model B16 Melanoma (intraperitoneal) in B6D2F1 (BDF1) mice
Conditions: endpoint: median survival time, higher = longer survival
Method in brief: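 Transplantable tumor model; survival or tumor size measured; reported as T/C, treated over vehicle control.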

[1] = dose: 10.0 mg/kg/injection, schedule: Q01DX009 (ip), vehicle: saline with Tween-80
[2] = dose: 100.0 mg/kg/injection, schedule: Q01DX009 (ip), vehicle: Klucel (hydroxypropylcellulose) (HPC)
[3] = dose: 200.0 mg/kg/injection, schedule: Q01DX009 (ip), vehicle: Klucel (hydroxypropylcellulose) (HPC)
[4] = dose: 400.0 mg/kg/injection, schedule: Q01DX009 (ip), vehicle: Klucel (hydroxypropylcellulose) (HPC)

Measured: T/C

[Cl][Pt+2][Cl].[NH-]C1CCCC1.[NH-]C1CCCC1
inactive: dose: 2.5 mg/kg/injection, schedule: Q01DX009 (ip), vehicle: Klucel (hydroxypropylcellulose) (HPC) 107 % of control | dose: 5.0 mg/kg/injection, schedule: Q01DX009 (ip), vehicle: Klucel (hydroxypropylcellulose) (HPC) 117 % of control | dose: 10.0 mg/kg/injection, schedule: Q01DX009 (ip), vehicle: Klucel (hydroxypropylcellulose) (HPC) 112 % of control | dose: 10.0 mg/kg/injection, schedule: Q01DX009 (ip), vehicle: olive oil, sesame oil, peanut oil 104 % of control | [1] 109 % of control | dose: 10.0 mg/kg/injection, schedule: Q01DX009 (ip), vehicle: saline 110 % of control | dose: 20.0 mg/kg/injection, schedule: Q01DX009 (ip), vehicle: saline with Tween-80 117 % of control | dose: 20.0 mg/kg/injection, schedule: Q01DX009 (ip), vehicle: saline 124 % of control | dose: 40.0 mg/kg/injection, schedule: Q01DX009 (ip), vehicle: saline with Tween-80 117 % of control | dose: 40.0 mg/kg/injection, schedule: Q04DX003 (ip), vehicle: Klucel (hydroxypropylcellulose) (HPC) 108 % of control | dose: 40.0 mg/kg/injection, schedule: Q04DX003 (ip), vehicle: saline 122 % of control | dose: 80.0 mg/kg/injection, schedule: Q01DX001 (ip), vehicle: Klucel (hydroxypropylcellulose) (HPC) 105 % of control | dose: 80.0 mg/kg/injection, schedule: Q01DX001 (ip), vehicle: saline 117 % of control | dose: 80.0 mg/kg/injection, schedule: Q01DX009 (ip), vehicle: Klucel (hydroxypropylcellulose) (HPC) 115 % of control | dose: 80.0 mg/kg/injection, schedule: Q01DX009 (ip), vehicle: saline with Tween-80 109 % of control | dose: 80.0 mg/kg/injection, schedule: Q04DX003 (ip), vehicle: Klucel (hydroxypropylcellulose) (HPC) 105 % of control | dose: 160.0 mg/kg/injection, schedule: Q01DX001 (ip), vehicle: Klucel (hydroxypropylcellulose) (HPC) 117 % of control | dose: 160.0 mg/kg/injection, schedule: Q01DX009 (ip), vehicle: saline 94 % of control | dose: 160.0 mg/kg/injection, schedule: Q04DX003 (ip), vehicle: Klucel (hydroxypropylcellulose) (HPC) 105 % of control | dose: 320.0 mg/kg/injection, schedule: Q01DX001 (ip), vehicle: Klucel (hydroxypropylcellulose) (HPC) 123 % of control | dose: 320.0 mg/kg/injection, schedule: Q04DX003 (ip), vehicle: Klucel (hydroxypropylcellulose) (HPC) 114 % of control | dose: 640.0 mg/kg/injection, schedule: Q04DX003 (ip), vehicle: saline 105 % of control

COc1cccc(CNc2cccc([N+](=O)[O-])c2)c1OC
inactive: [2] 100 % of control | [3] 110 % of control | [4] 105 % of control

CCN1C=C/C(=C/c2cc3scc(-c4ccccc4)[n+]3c3ccccc23)c2ccccc21
inactive: dose: 0.08 mg/kg/injection, schedule: Q01DX009 (ip), vehicle: saline 94 % of control | dose: 0.15 mg/kg/injection, schedule: Q01DX009 (ip), vehicle: saline 94 % of control | dose: 0.3 mg/kg/injection, schedule: Q01DX009 (ip), vehicle: saline 90 % of control | dose: 75.0 micrograms/kg/injection, schedule: Q01DX009 (ip), vehicle: Klucel (hydroxypropylcellulose) (HPC) 103 % of control | dose: 150.0 micrograms/kg/injection, schedule: Q01DX009 (ip), vehicle: Klucel (hydroxypropylcellulose) (HPC) 107 % of control | dose: 300.0 micrograms/kg/injection, schedule: Q01DX009 (ip), vehicle: Klucel (hydroxypropylcellulose) (HPC) 98 % of control | dose: 600.0 micrograms/kg/injection, schedule: Q01DX009 (ip), vehicle: Klucel (hydroxypropylcellulose) (HPC) 95 % of control

CC(=O)CC(=O)NC1CCCC1
inactive: [2] 96 % of control | [3] 96 % of control | [4] 107 % of control

O=C(CC(NC(=O)OCc1ccccc1)c1nn[nH]n1)OCc1ccccc1 (stereo unspecified)
inactive: dose: 66.0 mg/kg/injection, schedule: Q01DX009 (ip), vehicle: saline with Tween-80 99 % of control | dose: 100.0 mg/kg/injection, schedule: Q01DX009 (ip), vehicle: saline with Tween-80 107 % of control | dose: 150.0 mg/kg/injection, schedule: Q01DX009 (ip), vehicle: saline with Tween-80 100 % of control

C1CC[N-]CC1.C1CC[N-]CC1.C1CC[N-]CC1.C1CC[N-]CC1.N#C[S-].N#C[S-].[Ni]
inactive: dose: 5.0 mg/kg/injection, schedule: Q01DX009 (ip), vehicle: saline with Tween-80 92 % of control | [1] 104 % of control

Nc1ncnc2sc3c(c12)CCCC3
inactive: [2] 100 % of control | [3] 101 % of control | [4] 110 % of control

C=CCN1CCCC1=O
inactive: dose: 100.0 mg/kg/injection, schedule: Q04DX003 (ip), vehicle: saline 102 % of control | dose: 200.0 mg/kg/injection, schedule: Q04DX003 (ip), vehicle: saline 95 % of control | dose: 400.0 mg/kg/injection, schedule: Q04DX003 (ip), vehicle: saline 100 % of control
